Article PMC5513444, “The synthesis and evaluation of triazolopyrimidines as anti-tubercular agents” (Bioorganic & Medicinal Chemistry, 2017)
≈ marks a conversion by molar mass, not a printed value.

Columns and labels:
M. tuberculosis H37Rv [1] = assay: MIC90 against M. tuberculosis in liquid medium; type: cell-based, Mycobacterium tuberculosis; settings: Mycobacterium tuberculosis, H37RV, 120 h; liquid medium 7H9-Tw-OADC, aerobic, 5 days; average ± SD of two independent experiments; read-out: MIC (MIC90, minimum concentration required to inhibit growth of M. tuberculosis by 90%)
HepG2 cells = assay: Cytotoxicity against HepG2 cell line (CellTiter-Glo); type: cell-based
[2] = Turnover by mouse liver microsomes; type: in vitro ADME
Procedure: (§1) Based on in silico ADME predictions, three compounds were chosen to cover a range of cLogP values and were evaluated for their in vitro microsomal stability (Table 7). Rapid metabolism of compound 44 was observed, in rodent and human liver microsomes. The para-OCF3 analog 48 was also rapidly metabolized. The amide (49) had improved in vitro microsomal stability, with only 12% loss after 30 min in mouse microsomes, 22% loss in rat microsomes and 31% loss in human microsomes. The difference in stability for these three compounds is probably due to presence of more than one oxidatively-labile carbon in 44 and 48 (both have a two carbon linker), while 49 has only one such soft spot, although these have not been confirmed with metabolite identification studies.

[3] = Turnover by rat liver microsomes; type: in vitro ADME
Procedure: as §1

[4] = Turnover by human liver microsomes; type: in vitro ADME
Procedure: as §1

[5] = Fraction unbound in mouse plasma; type: in vitro ADME; settings: read-out: Mouse Fu,pl (fraction unbound in plasma)
From the text: Table 7 In vitro ADME and in vivo PK. | column: Mouse Fu,pl ^a

[6] = In vivo mouse PK after oral and intravenous administration; settings: male mice, oral 10 mg/kg
Procedure: The oral exposure of the three compounds was evaluated in male mice by comparing exposures following oral (PO) and intravenous (IV) administration of 10 and 1 mg/kg doses of compounds, respectively (Table 7).

M. tuberculosis H37Rv [7] = assay: MIC99 on solid medium, M. tuberculosis; type: cell-based, Mycobacterium tuberculosis; settings: solid medium 7H10-OADC, 4 weeks, lowest concentration yielding less than 1% growth
[8] = tested on: Mycobacterium smegmatis mc^2155; assay: MIC99 on solid medium, M. smegmatis; type: cell-based; settings: Mycolicibacterium smegmatis, 3–4 days
Escherichia coli DH5α = assay: MIC99 on solid medium, E. coli; type: cell-based; settings: 24 h, LB agar, 1 day
[9] = tested on: Pseudomonas aeruginosa HER1018 (PAO1); assay: MIC99 on solid medium, P. aeruginosa; type: cell-based; settings: PAO1, 24 h, tryptic soy agar, 1 day
[10] = tested on: Bacillus subtilis Marburg; assay: MIC99 on solid medium, B. subtilis; type: cell-based; settings: nutrient agar, 28 °C, 3–4 days
M. tuberculosis = assay: Kill kinetics against M. tuberculosis in liquid culture; type: cell-based, Mycobacterium tuberculosis
[11] = tested on: Saccharomyces cerevisiae Y187; assay: MIC99 on solid medium, S. cerevisiae; settings: YPD agar, 3–4 days

FC(F)(F)Oc1ccc(CCNc2cc(-c3ccccc3)nc3ncnn23)cc1 [Compound 48, 5-Phenyl-N-(4-(trifluoromethoxy)phenethyl)-[1,2,4]triazolo[1,5-a]pyrimidin-7-amine]
MIC90 (M. tuberculosis H37Rv [1]): 3.9 ± 1.1 µM (≈ 1.56 µg/mL) | Selectivity index (SI) = IC50/MIC90 (HepG2 cells; HepG2 IC50 / M. tuberculosis MIC90): >27 | IC50 (HepG2 cells; Homo sapiens, 48 h, HepG2, 2 days incubation, read-out: IC50 (concentration required to reduce the viability of HepG2 cells by 50%)): > 100 µM | % turnover by liver microsomes in 30 min, Mouse [2]: 52.1% | % turnover by liver microsomes in 30 min, Rat [3]: 52.7% | % turnover by liver microsomes in 30 min, Human [4]: 32.8% | fraction unbound [5]: 0.007 | Cmax [6]: 958 nM | PO AUC [6]: 2.75 µM·h | PO Tmax [6]: 0.75 h | PO t1/2 [6]: 2.49 h | MIC99 (M. tuberculosis H37Rv [7]; Mycobacterium tuberculosis, H37RV, 672 h): 1.6 µM (≈ 0.639 µg/mL) | MIC99 (M. tuberculosis H37Rv [7]): < 20 µM | MIC99 [8]: > 10 µM | MIC99 (Escherichia coli DH5α): > 10 µM | MIC99 [9]: > 100 µM | MIC99 [10]: > 10 µM | Kill of non-replicating M. tuberculosis (M. tuberculosis; non-replicating bacteria (starvation conditions, PBS-Ty), over 14–21 days): 2–3 log | Activity against replicating M. tuberculosis (kill kinetics) (M. tuberculosis; replicating bacteria in 7H9-Tw-OADC, over 21 days): static activity | MIC99 S. cerevisiae [11]: >10 µM
